Experimental data as given in patent publication US7084146B2 (dated 2006).

melting point: 237 °C
Compound: O=[N+]([O-])c1ccc(-c2c(Cl)nc3ncnn3c2NCC(F)(F)F)cc1
